Results reported in patent US7365053B2, “Selective N-acylation of A82846 glygopeptides analogs” (priority 2000, dated 2008).
≈ marks a conversion by molar mass, not a printed value.

Key:
[1] = test system: Staphylococcus aureus 446; assay: Broth micro-dilution MIC; assay type: cell-based
Description: (§1) The compounds of the present invention have in vitro activity against Gram-positive pathogenic bacteria. The antibacterial activity of the present compounds is illustrated in Tables III and IV. The minimal inhibitory concentrations (MICs) were determined using a standard broth micro-dilution assay. Table IV presents a comparison of the activity of illustrative compounds against representative vancomycin-resistant and vancomycin-sensitive enterococci (Enterococcus faecium and Enterococcus faecalis), mean geometric MIC (mcg/mL), as determined by the standard broth microdilution assay.
(§2) Assays for antimicrobial activity were performed using microbroth susceptibility testing methods as described by the NCCLS (National Committee for Clinical Laboratories Standards. 1990. Approved standard M7-A2. Methods for dilution antimicrobial susceptibility testing for bacteria that grow aerobically, 2 ed., Villanova Pa.). Brain-heart infusion medium (BHI) was used for testing of enterococci, and NCCLS recommendations for medium were followed for other bacteria.

[2] = test system: Enterococcus faecalis 2041; assay: Broth micro-dilution MIC; assay type: cell-based; conditions: BHI medium
Description: as §1, §2

[3] = test system: Staphylococcus aureus SA1199A; assay: Broth micro-dilution MIC; assay type: cell-based
Description: as §1, §2

[4] = test system: Enterococcus faecium 180-1; assay: Broth micro-dilution MIC; assay type: cell-based; conditions: BHI medium
Description: as §1, §2

[5] = test system: Staphylococcus aureus X400; assay: Broth micro-dilution MIC; assay type: cell-based
Description: as §1, §2

[6] = test system: Enterococcus gallinarum 245; assay: Broth micro-dilution MIC; assay type: cell-based; conditions: BHI medium
Description: as §1, §2

[7] = test system: Haemophilus influenzae RD; assay: Broth micro-dilution MIC; assay type: cell-based
Description: as §1, §2

[8] = test system: Staphylococcus aureus 491; assay: Broth micro-dilution MIC; assay type: cell-based
Description: as §1, §2

[9] = test system: Staphylococcus aureus X778; assay: Broth micro-dilution MIC; assay type: cell-based
Description: as §1, §2

[10] = test system: Staphylococcus epidermidis 270; assay: Broth micro-dilution MIC; assay type: cell-based
Description: as §1, §2

[11] = test system: Staphylococcus aureus S13E; assay: Broth micro-dilution MIC; assay type: cell-based
Description: as §1, §2

[12] = test system: Escherichia coli EC14; assay: Broth micro-dilution MIC; assay type: cell-based
Description: as §1, §2

[13] = test system: Staphylococcus haemolyticus 415; assay: Broth micro-dilution MIC; assay type: cell-based
Description: as §1, §2

[14] = test system: Enterococcus faecalis 276; assay: Broth micro-dilution MIC; assay type: cell-based; conditions: BHI medium
Description: as §1, §2

[15] = test system: Staphylococcus aureus SA1199B; assay: Broth micro-dilution MIC; assay type: cell-based
Description: as §1, §2

[16] = test system: Staphylococcus aureus 447; assay: Broth micro-dilution MIC; assay type: cell-based
Description: as §1, §2

[17] = test system: Enterococcus faecium 180; assay: Broth micro-dilution MIC; assay type: cell-based; conditions: BHI medium
Description: as §1, §2

[18] = test system: Staphylococcus haemolyticus 105; assay: Broth micro-dilution MIC; assay type: cell-based
Description: as §1, §2

[19] = test system: Staphylococcus aureus SA1199; assay: Broth micro-dilution MIC; assay type: cell-based
Description: as §1, §2

[20] = test system: Streptococcus pneumoniae P1; assay: Broth micro-dilution MIC; assay type: cell-based
Description: as §1, §2

[21] = test system: Staphylococcus aureus 489; assay: Broth micro-dilution MIC; assay type: cell-based
Description: as §1, §2

[22] = test system: Streptococcus pyogenes C203; assay: Broth micro-dilution MIC; assay type: cell-based
Description: as §1, §2

[23] = test system: vancomycin-resistant enterococci; assay: In vitro activity against enterococci, broth microdilution; assay type: cell-based, Enterococcus faecium and Enterococcus faecalis; conditions: representative vancomycin-resistant enterococci (E. faecium and E. faecalis); BHI medium
Description: as §1, §2

[24] = test system: vancomycin-sensitive enterococci; assay: as above; assay type: cell-based, Enterococcus faecium and Enterococcus faecalis; conditions: representative vancomycin-sensitive enterococci (E. faecium and E. faecalis); BHI medium
Description: as §1, §2

CCCCCCCC(=O)NC1(C)CC(OC2c3ccc(c(Cl)c3)Oc3cc4cc(c3OC3OC(CO)C(O)C(O)C3OC3CC(C)(N)C(O)C(C)O3)Oc3ccc(cc3Cl)C(O)C(NC(=O)C(CC(C)C)NC)C(=O)NC(CC(N)=O)C(=O)NC4C(=O)NC3C(=O)NC2C(=O)NC(C(=O)O)c2cc(O)cc(O)c2-c2cc3ccc2O)OC(C)C1O (stereo not drawn) [Example 9, 6′-N-octanoyl-A82846B]
MIC [1]: 1 µg/mL (≈ 0.582 µM)
MIC [2]: 0.5 µg/mL (≈ 0.291 µM)
MIC [3]: 0.125 µg/mL (≈ 0.0727 µM)
MIC [4]: 0.125 µg/mL (≈ 0.0727 µM)
MIC [5]: 0.5 µg/mL (≈ 0.291 µM)
MIC [6]: 16 µg/mL (≈ 9.31 µM)
MIC [7]: 64 µg/mL (≈ 37.2 µM)
MIC [8]: 0.125 µg/mL (≈ 0.0727 µM)
MIC [9]: 0.25 µg/mL (≈ 0.145 µM)
MIC [10]: 2 µg/mL (≈ 1.16 µM)
MIC [11]: 1 µg/mL (≈ 0.582 µM)
MIC [12]: >64 µg/mL
MIC [13]: 16 µg/mL (≈ 9.31 µM)
MIC [14]: 0.125 µg/mL (≈ 0.0727 µM)
MIC [15]: 0.5 µg/mL (≈ 0.291 µM)
MIC [16]: 2 µg/mL (≈ 1.16 µM)
MIC [17]: 32 µg/mL (≈ 18.6 µM)
MIC [18]: 0.25 µg/mL (≈ 0.145 µM)
MIC [19]: 0.5 µg/mL (≈ 0.291 µM)
MIC [20]: ≦.06 μg/ml
MIC [21]: 0.125 µg/mL (≈ 0.0727 µM)
MIC [22]: ≦.06 μg/ml
Mean geometric MIC, Vancomycin Resistant Strains [23]: >90 µg/mL
Mean geometric MIC, Vancomycin Sensitive Strains [24]: 1.2 µg/mL
